Reference: PMC6329299 (The pharmacogenomics journal, 2015)
Positions count from the first letter of the chain named. Where a name gives a salt, the structure may show the parent alone.

Columns and labels:
[1] = Hydrolysis by human intestine s9 fractions; format: in vitro ADME; conditions: substrate 100 μM, 3 concentrations of HIS9
[2] = Hydrolysis by human kidney s9 fractions; format: in vitro ADME; conditions: substrate 100 μM, 3 concentrations of HKS9
[3] = biological target: T1, CES1 in individual human liver s9 fractions (Homo sapiens, UniProt P23141); format: in vitro ADME; conditions: 143G/G livers; HLS9 0.5 mg/ml, enalapril 500 μM, 37 °C, 10 min
T1 sequence (P23141 18-567): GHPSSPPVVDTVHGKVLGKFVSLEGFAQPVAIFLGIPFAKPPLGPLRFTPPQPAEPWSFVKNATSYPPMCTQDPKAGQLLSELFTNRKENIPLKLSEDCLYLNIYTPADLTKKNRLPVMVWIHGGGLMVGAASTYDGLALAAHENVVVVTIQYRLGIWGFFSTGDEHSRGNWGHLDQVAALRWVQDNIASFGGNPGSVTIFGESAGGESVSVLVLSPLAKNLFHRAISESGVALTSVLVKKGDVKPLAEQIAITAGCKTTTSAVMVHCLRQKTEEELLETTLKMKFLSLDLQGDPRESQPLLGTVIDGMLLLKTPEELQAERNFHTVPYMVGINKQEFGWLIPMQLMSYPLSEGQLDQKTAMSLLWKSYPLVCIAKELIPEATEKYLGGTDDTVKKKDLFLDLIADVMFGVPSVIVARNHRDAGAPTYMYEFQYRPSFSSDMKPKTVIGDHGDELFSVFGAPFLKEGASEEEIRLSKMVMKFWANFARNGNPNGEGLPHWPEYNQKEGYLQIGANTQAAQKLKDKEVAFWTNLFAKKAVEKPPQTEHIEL

[4] = test system: CES1 in individual human liver s9 fractions; format: in vitro ADME
[5] = biological target: T2, CES1 variant G19V (Homo sapiens, UniProt P23141, G18V); assay: Enalapril hydrolysis by CES1 variant G19V transfected cell s9; format: in vitro ADME; conditions: enalapril 500 μM
T2 sequence (P23141 18-568 isoform P23141-2 G19V limits assumed): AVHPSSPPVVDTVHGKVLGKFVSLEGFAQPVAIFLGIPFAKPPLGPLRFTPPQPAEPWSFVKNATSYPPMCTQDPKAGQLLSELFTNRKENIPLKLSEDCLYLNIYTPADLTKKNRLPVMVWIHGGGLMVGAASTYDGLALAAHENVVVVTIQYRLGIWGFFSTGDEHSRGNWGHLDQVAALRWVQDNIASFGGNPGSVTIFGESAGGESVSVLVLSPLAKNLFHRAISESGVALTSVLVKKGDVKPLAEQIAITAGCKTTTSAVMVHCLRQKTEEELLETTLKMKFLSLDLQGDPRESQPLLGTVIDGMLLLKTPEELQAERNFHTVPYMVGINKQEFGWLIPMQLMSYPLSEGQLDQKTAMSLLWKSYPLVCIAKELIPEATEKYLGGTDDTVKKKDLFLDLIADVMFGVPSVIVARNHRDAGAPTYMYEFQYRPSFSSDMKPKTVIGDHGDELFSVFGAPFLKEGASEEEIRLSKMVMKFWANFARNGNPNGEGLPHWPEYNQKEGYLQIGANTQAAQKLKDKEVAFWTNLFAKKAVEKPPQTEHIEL

[6] = biological target: T3, CES1 variant S83L (Homo sapiens, UniProt P23141, S82L); assay: Enalapril hydrolysis by CES1 variant S83L transfected cell s9; format: in vitro ADME; conditions: enalapril 500 μM
T3 sequence (P23141 18-568 isoform P23141-2 S83L limits assumed): T2 sequence (P23141 18-568 isoform P23141-2 G19V limits assumed) with V2G, S66L

[7] = biological target: T4, CES1 variant A270S (Homo sapiens, UniProt P23141, A269S); assay: Enalapril hydrolysis by CES1 variant A270S transfected cell s9; format: in vitro ADME; conditions: enalapril 500 μM
T4 sequence (P23141 18-568 isoform P23141-2 A270S limits assumed): T2 sequence (P23141 18-568 isoform P23141-2 G19V limits assumed) with V2G, A253S

[8] = human, pH 7.4
[9] = Hydrolysis
[10] = human liver samples, enalapril 500 μM

Hydrolysis by human intestine s9 fractions [1]: No appreciable activation
Hydrolysis by human kidney s9 fractions [2]: No appreciable activation
enalapril activation rate [3]: 55.4±37.3 pmole/min/mg protein
CES1 activity in the null-CES1 liver samples (some G143E non-carriers) ([4]; CES1 expression comparable to pooled HLS9): null CES1 activity
CES1 activity on enalapril activation, 143G/E livers as fraction of 143G/G ([4]; human liver samples): approximately 1/3
CES1 activity on enalapril activation between CES1P1/CES1P1, CES1P1/CES1P1VAR and CES1P1VAR/CES1P1VAR genotypes [4, 10]: no significant differences
CES1 activity on enalapril hydrolysis among CES1/CES1, CES1/CES1VAR and CES1VAR/CES1VAR genotypes [4, 10]: comparable
CES1 activity on enalapril activation within the nine CES1/CES1P1 diplotypes ([4]; one way ANOVA, activity P=0.549): no significant differences
Catalytic activity of G19V on enalapril activation vs WT CES1 [5]: comparable to the WT CES1
Catalytic activity of S83L on enalapril activation vs WT CES1 [6]: comparable to the WT CES1
Catalytic activity of A270S on enalapril activation vs WT CES1 [7]: comparable to the WT CES1
Clint (Vmax/Km) [8]: 1.1 μl/min/mg protein
Km ([9]; human, pooled human liver s9 fractions (HLS9), pH 7.4): 60.1 ± 4.2 µM
Hydrolysis to active metabolite by human liver s9 fractions ([9]; prodrug 100 μM, 3 concentrations of HLS9): efficiently hydrolyzed
SMILES: CCOC(=O)[C@H](CCc1ccccc1)N[C@@H](C)C(=O)N1CCC[C@H]1C(=O)O [Enalapril, Enalapril maleate]
Vmax ([9]; HLS9, PBS pH 7.4, 37 °C, unit for enalapril): 67.5 ± 1.3 pmole/min/mg protein
